# Data as given in PubChem BioAssay (NCI).
# “And” between values parts separate entries of the source, which are not always exact repeats. Equal values may be shown once.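 Test compounds were applied to cells in 96-well plates for 48 hours at 5 doses. The concentration for 50% growth inhibition is given as GI50. TGI denotes the concentration required for complete inhibition of growth.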 Where a SMILES comes first, the peptide text is derived from it. Bridges are numbered along the chain shown (N, C = ends). Roman numbers before positions name the chains, in order. [ ]: non-standard residue; d: D form. The star is where a group is joined. Quinoxaline2carbonyl = O=C(c1cnc2ccccc2n1)*; NMeV = CN[CH](C(=O)O)C(C)C; NMeC = CN[CH](CS)C(=O)O
# Columns and labels:
# Assay in all cases: NCI anticancer screen, dose series, 48 h
# [1] = system: CCRF-CEM leukemia
# [2] = system: EKVX NSCLC
# [3] = system: HT29 colon
# [4] = system: K-562 leukemia
# [5] = system: NCI-H226 lung
# [6] = system: PC-3 prostate
# [7] = system: SK-OV-3 ovarian
# [8] = system: U251 CNS
# [9] = system: UO-31 renal
# [10] = system: SNB-75 CNS
SMILES,GI50 [1] [µM],TGI [1] [µM],GI50 [2] [µM],TGI [2] [µM],GI50 [3] [µM],TGI [3] [µM],GI50 [4] [µM],TGI [4] [µM],GI50 [5] [µM],TGI [5],GI50 [6] [µM],TGI [6] [µM],GI50 [7] [µM],TGI [7],GI50 [8] [µM],TGI [8],GI50 [9] [µM],TGI [9] [µM],GI50 [10] [µM],TGI [10]
C#CCOc1cccc(Nc2ncnc3c(NC(=O)CCl)cccc23)c1,10.7,35.9,20,54.1,18.6,34.4,17.5,71.7,33.4,> 100 µM,22.8,55.6,51.2,> 100 µM,19.4,38.1 µM,15.5,39.2,,
CC(=O)c1c(C(F)(F)F)n([O-])c2ccc(C)cc2[n+]1=O,0.555,4.83,1.19,4.59,4.96,> 100,1.1,21.4,1.71,6.85 µM,1.34,14.1,5.02,> 100 µM,2.79,> 35.4 µM,4.39,,3.28,18.1 µM
N/N=C1\CC(=O)NC(=O)N1,,> 100,,> 100,,> 100,,> 100,,> 100 µM,,> 100,,> 100 µM,,> 100 µM,,> 100,,> 100 µM
C[CH2][Pb]([CH2]C)([CH2]C)[O]C(=O)c1ccc2ccccc2n1,> 10,> 10,> 10,> 10,> 10,> 10,> 10,> 10,> 10,> 10 µM,> 10,> 10,> 10,> 10 µM,> 10,> 10 µM,> 10,> 10,,
COc1ccc(/C=N/NC(=O)Cn2c(-c3ccc(S(C)(=O)=O)cc3)nc3cc(Cl)ccc32)cc1,0.318,> 50,2.51,> 50,0.689,7.19,0.343,> 50,1.63,> 50 µM,0.674,> 50,1.72,> 50 µM,1.16,> 50 µM,3.45,> 50,1.05,> 50 µM
COc1cc2c(c(OC)c1OC)-c1ccc(SC)c(=O)cc1[C@@H](NC1OC(CO)C(O)C(O)C1O)CC2 (stereo not given in full),0.0382,> 100,,,0.028,0.0794,0.0227,> 100,1.52,> 100 µM,0.0347,> 100,0.0396,> 100 µM,0.0318,24.4 µM,0.0864,> 100,0.0439,> 100 µM
CCOc1nc(N)nc(C)c1N=Nc1ccc(Cl)cc1,,> 100,,> 100,,> 100,,> 100,,> 100 µM,,> 100,,> 100 µM,,> 100 µM,,> 100,,> 100 µM
CCN(Cc1ccc(Cl)s1)c1ccc(CO)c(Cl)c1,13.1,> 81.1,,,3.01,16.4,0.575,> 53.9,0.0915,0.232 µM,12.7,49.4,2.74,18.2 µM,0.434,13.2 µM,1.12,20,2.18,21.6 µM
Nc1ccccc1SCc1csc(-c2ccc(Cl)cc2)n1,,67.1,,86.9,,46.2,,63.9,,62.5 µM,,> 71.5,,> 89.6 µM,,60.1 µM,,46.6,,> 100 µM
CSC(=S)N/N=C(\C)c1cccc(C)n1,,0.102,,> 43.3,,> 47.3,,> 7.8,,10.7 µM,,36.3,,10.7 µM,,33.8 µM,,13.2,,13.6 µM
C/C1=C\[C@@H](O)C(=O)/C=C/C=C\c2csc(n2)[C@@H](C)NC(=O)C[C@@]2(CC1)S(=O)SC(=O)[C@]2(C)O (stereo not given in full),,> 100,,0.612,,,,> 100,0.0254,0.558 µM and 0.327 µM,,0.0387,0.181,0.472 µM and 2.74 µM,0.0122,0.209 µM and 0.267 µM,,0.0889,,0.0995 µM and 0.0219 µM
N#Cc1c(N)[nH]c2ccc(Sc3ccccc3)cc12,,13.8,,11.7,,9.01,,9.71,,1.29 µM,,15.8,,20.3 µM,,17.5 µM,,13.9,,23 µM
COc1ccc(OC)c(C2SCC(=O)N2NC(=O)C(O)c2ccccc2)c1 (stereo not given),> 100,> 100,> 100,> 100,> 100,> 100,> 100,> 100,> 100,> 100 µM,> 100,> 100,> 100,> 100 µM,> 100,> 100 µM,> 100,> 100,> 100,> 100 µM
CCN1C(=O)N(CC)C2C1NN=c1s/c(=C\c3ccccc3Br)c(=O)n12 (stereo not given),0.0354,> 100,0.317,> 70.7,0.0348,14,0.0329,> 100,0.132,4.98 µM,0.0383,44.5,0.0667,> 100 µM,0.0418,22.3 µM,0.205,34.4,0.0262,2.22 µM
"CC1NC(=O)C(NC(=O)c2cnc3ccccc3n2)COC(=O)C(C(C)C)N(C)C(=O)C2CSSCC(C(=O)N(C)C(C(C)C)C(=O)OCC(NC(=O)c3cnc4ccccc4n3)C(=O)NC(C)C(=O)N2C)N(C)C1=O (stereo not given) (I: Quinoxaline2carbonyl-SA[NMeC][NMeV] / II: Quinoxaline2carbonyl-SA[NMeC][NMeV]; ester I:1-II:C, I:C-II:1; disulfide I:3-II:3; configuration not given here)",,0.229,,,,,,> 51.5,,0.0237 µM,,1.68,,6.87 µM,,> 31.8 µM,,,,< 0.01 µM
